Molecules are shown by their SMILES.

Common to all, as to assay type: in vivo
One test deals with Chilo suppressalis. In words: Insecticidal activity assay, water bamboo leaf dip, 4th instar larvae. The settings on record: liquid concentration 0.4 ppm, 48 h. The method, then: (§1) The compound of the present invention was dissolved in acetone, and then diluted with water into liquids with gradients of different concentrations (ppm). Corn leaves were soaked in liquids of different concentrations for about 20 seconds, air-dried and then placed in petri dishes where 3rd instar Spodoptera frugiperda were placed, respectively; kale leaves were soaked in liquids of different concentrations for about 20 seconds, air-dried and then placed in petri dishes where 3rd instar Spodoptera frugiperda were placed, respectively; peanut leaves were soaked in liquids of different concentrations for about 20 seconds, air-dried and then placed in petri dishes where Tetranychus urticae (adult mite) and Aphis craccivora (adult aphid) were placed, respectively; water bamboo leaves were soaked in liquids of different concentrations for about 20 seconds, air-dried and then placed in petri dishes where 4th instar Chilo suppressalis were placed, respectively. Each petri dish was placed with 10 insects, covered and then stored at 25° C. in a constant temperature room. The number of dead insects were checked after 48 h. The dead insect rate was calculated by the formula: Death rate (%)=(Number of dead insects/Number of test insects)×100. Furthermore, the experiment was conducted in two replications.

Test [1] has as its system Spodoptera frugiperda. Briefly: Insecticidal activity assay, corn leaf dip, 3rd instar larvae. The settings on record: liquid concentration 0.3 ppm, 48 h. The procedure:
as §1

Another test deals with Aphis craccivora. Briefly: Insecticidal activity assay, peanut leaf dip, adult aphid. The settings on record: liquid concentration 8.1 ppm, 48 h. The method, then:
as §1

The next test relates to Spodoptera exigua. In words: Insecticidal activity assay, kale leaf dip, 3rd instar larvae. Conditions: liquid concentration 0.3 ppm, 48 h.
A further test has as its system Tetranychus urticae. Briefly: Insecticidal activity assay, peanut leaf dip, adult mite. The settings on record: 48 h. The method, then:
as §1

Test [2] concerns Spodoptera frugiperda. Briefly: Assay of insecticidal activity of compositions (synergism), 3rd instar. Conditions: A 0.1 ppm. The method, then:
as §1
• Test targets: Spodoptera frugiperda (3rd instar) and Aphis gossypii (adult aphid) […]
(§2) Different ratios within the selected ratio range were set for toxicity determination, and the optimal ratio was selected according to synergistic effects. When the synergistic effect >0, it indicated a synergistic effect; when the synergistic effect is close to 0, it indicated an addition effect; when the synergistic effect <0, it indicated an antagonistic effect.
(§3) [formula] • wherein, P1, P2—Death rate by each individual agent in a mixed formulation.

The subject of a further test is Aphis gossypii. Briefly: Assay of insecticidal activity of compositions (synergism), zucchini leaves, adult aphid. Conditions: for pest or weed control at 1 µg/mL: B 1 ppm. The method, then: as §1
• Test targets: Spodoptera frugiperda (3rd instar) and Aphis gossypii (adult aphid)
Referring to the above-mentioned Insecticidal activity assay, when the test target was Aphis gossypii, the zucchini leaves were selected.
as §2, §3

Setting [3] is: in Cucurbita pepo, 48 h, read-out: Death rate by individual B.

Consider `COC(=O)C(C)NC(=O)c1ccc(C2=NOC(c3cc(Cl)cc(C(F)(F)F)c3)(C(F)(F)F)C2)cc1C` (mixture of isomers) [1 (2R)], for which the Death rate in the test on Chilo suppressalis amounted to 100%; with Spodoptera frugiperda [1], 100%; in the test with Aphis craccivora, 83%; in the test on Spodoptera exigua it was 90%; in the test on Tetranychus urticae (liquid concentration 8.1 ppm) it was 83%.
For the molecule `COC(=O)C(C)NC(=O)c1ccc(C2=NOC(c3cc(Cl)c(F)c(C(F)(F)F)c3)(C(F)(F)F)C2)cc1C` (mixture of isomers) [2 (2R)], the Death rate in the test on Chilo suppressalis is 100%; in the test with Spodoptera frugiperda [1], 100%; with Aphis craccivora, 90%; in the test on Spodoptera exigua, 90%; with Tetranychus urticae (liquid concentration 0.9 ppm), 100%.
On to `CCc1cc(C2=NOC(c3cc(Cl)c(Cl)c(C(F)(F)F)c3)(C(F)(F)F)C2)ccc1C(=O)NC(C)C(=O)OC` (mixture of isomers) [140 (2R)], for which the Death rate with Chilo suppressalis, in the test on Spodoptera frugiperda [1], in the test on Aphis craccivora, with Spodoptera exigua and with Tetranychus urticae (liquid concentration 8.1 ppm) was 100% in each case.
Consider `COC(=O)C(C)NC(=O)c1ccc(C2=NOC(c3cc(Cl)c(Cl)c(C(F)(F)F)c3)(C(F)(F)F)C2)cc1C(F)(F)F` (mixture of isomers) [147 (2R)], for which the Death rate in the test with Chilo suppressalis, in the test with Spodoptera frugiperda [1], with Aphis craccivora, in the test with Spodoptera exigua and with Tetranychus urticae (liquid concentration 8.1 ppm) was 100% throughout.
As for `COC(=O)CNC(=O)c1ccc(C2=NO[C@@](c3cc(Cl)c(Cl)c(C(F)(F)F)c3)(C(F)(F)F)C2)cc1C` [188 (5S)], the Death rate with Chilo suppressalis, in the test with Spodoptera frugiperda [1], with Aphis craccivora, in the test on Spodoptera exigua and in the test with Tetranychus urticae (liquid concentration 8.1 ppm) was 100% in each case.
For the molecule `COC(=O)C(C)NC(=O)c1ccc(C2=NOC(c3cc(Cl)c(F)c(C(F)(F)F)c3)(C(F)(F)F)C2)cc1C` [Compound 2 (5S, 2R)], the Death rate in the test on Chilo suppressalis, in the test on Spodoptera frugiperda [1], in the test with Aphis craccivora, in the test on Spodoptera exigua and in the test on Tetranychus urticae (liquid concentration 0.9 ppm) was 100% throughout.
Take `COC(=O)[C@@H](C)NC(=O)c1ccc(C2=NOC(c3cc(Cl)c(Cl)c(C(F)(F)F)c3)(C(F)(F)F)C2)cc1C` (stereo partly drawn) [Compound 3 (2R)]: the Death rate with Chilo suppressalis amounted to 100%; with Spodoptera frugiperda [1], 100%; in the test on Aphis craccivora it was 93%; in the test on Spodoptera exigua it was 77%; with Tetranychus urticae (liquid concentration 0.9 ppm) it was 100%. Moreover, the “Death rate by individual A” value in the test with Spodoptera frugiperda [2] was determined as 72%; in the test with Aphis gossypii (A 0.1 ppm), 38%.
Consider `CC(C)=NOC(=O)[C@@H](C)NC(=O)c1ccc(C2=NOC(c3cc(Cl)c(Cl)c(C(F)(F)F)c3)(C(F)(F)F)C2)cc1C` (stereo partly drawn) [Compound 80 (2R)], for which the Death rate in the test with Chilo suppressalis, in the test on Spodoptera frugiperda [1], with Aphis craccivora, with Spodoptera exigua and with Tetranychus urticae (liquid concentration 8.1 ppm) was 100% in each case.
Regarding `COC(=O)[C@@H](C)NC(=O)c1ccc(C2=NOC(c3cc(Cl)c(Cl)c(C(F)(F)F)c3)(C(F)(F)F)C2)cc1Cl` (stereo partly drawn) [Compound 144 (2R)], the Death rate with Chilo suppressalis, with Spodoptera frugiperda [1], with Aphis craccivora, in the test with Spodoptera exigua and in the test on Tetranychus urticae (liquid concentration 8.1 ppm) was 100% each time.
In the case of `COC(=O)[C@@H](C)NC(=O)c1ncc(C2=NOC(c3cc(Cl)c(Cl)c(C(F)(F)F)c3)(C(F)(F)F)C2)cc1C` (stereo partly drawn) [Compound 154 (2R)], the Death rate with Chilo suppressalis turned out to be 100%; in the test on Spodoptera frugiperda [1], 100%; in the test with Aphis craccivora, 93%; in the test on Spodoptera exigua, 77%; in the test on Tetranychus urticae (liquid concentration 0.9 ppm), 100%.
As for `COC(=O)[C@@H](C)NC(=O)c1ccc(C2=NOC(c3cc(Cl)cc(Cl)c3)(C(F)(F)F)C2)cc1C` (stereo partly drawn) [Control compound A, reference compound], the Death rate in the test with Chilo suppressalis is 40%; in the test with Spodoptera frugiperda [1], 70%; in the test on Aphis craccivora, 20%; in the test with Spodoptera exigua it was 30%; with Tetranychus urticae (liquid concentration 8.1 ppm), 25%.
As for `O=[N+]([O-])NC1=NCCN1Cc1ccc(Cl)nc1` [Imidacloprid, reference compound], the pest or weed control at 1 µg/mL in the test on Aphis gossypii (setting [3]) was found to be 53%.
`CCN(Cc1ccc(Cl)nc1)/C(=C/[N+](=O)[O-])NC` [Nitenpyram, reference compound]: in the test on Aphis gossypii (setting [3]), the pest or weed control at 1 µg/mL worked out at 36%.
Regarding `CC(c1ccc(C(F)(F)F)nc1)S(C)(=O)=NC#N` (stereo not drawn) [Sulfoxaflor, reference compound], the pest or weed control at 2 µg/mL in the test on Aphis gossypii (in Cucurbita pepo, 48 h, B 2 ppm, read-out: Death rate by individual B) came out at 46%.
In the case of `CN1COCN(Cc2cnc(Cl)s2)/C1=N\[N+](=O)[O-]` [Thiamethoxam, reference compound], in the test on Aphis gossypii (setting [3]), the pest or weed control at 1 µg/mL was 64%.
On the same count and under the same terms, with `CCc1nn(C)c(C(=O)NCc2ccc(Oc3ccc(C)cc3)cc2)c1Cl` [Tolfenpyrad, reference compound] the figure was 35%.
In the case of `CCN(C(=O)c1cnn(C(C)C(C)C)c1C)c1ccnnc1` (stereo not drawn) [dimpropyridaz, Dimpropyridaz, reference compound], the “Death rate by individual B” value in the test with Aphis gossypii (B 2 ppm) stood at 48%.
